In publication PMC8963254, “Effects of Lysine N-ζ-Methylation in Ultrashort Tetrabasic Lipopeptides (UTBLPs) on the Potentiation of Rifampicin, Novobiocin, and Niclosamide in Gram-Negative Bacteria” (Antibiotics, 2022):
Read-outs that look alike come from different tables or passages of the source.

Key:
A. baumannii ATCC 17978 = assay type: cell-based, Acinetobacter baumannii; settings: ATCC 17978, 18 h
Description: (§1) The in vitro antibacterial activity of the UTBLPs was assessed against wild-type and clinically isolated bacterial strains. To obtain the MIC of the compounds, the microbroth dilution susceptibility assay was performed according to the Clinical and Laboratory Standards Institute (CLSI, Wayne, PA, USA) guidelines and as previously described. Briefly, the compounds at varying concentrations were incubated with bacterial inoculum (5 × 10^5 CFU/mL final concentration) at 37 °C for 18 h. Growth in the form of turbidity was confirmed using an EMax Plus microplate reader (Molecular Devices, San Jose, CA, USA) at 590 nm.

E. coli ATCC 25922 [1] = assay type: cell-based, Escherichia coli; settings: ATCC 25922, 18 h
Description: as §1

E. faecalis ATCC 29212 [2] = assay type: cell-based, Enterococcus faecalis; settings: ATCC 29212, 18 h
Description: as §1

E. faecium ATCC 27270 [3] = assay type: cell-based, Enterococcus faecium; settings: ATCC 27270, 18 h
Description: as §1

A. baumannii AB027 = test: microbe, parasite or virus in culture; assay type: cell-based, Acinetobacter baumannii; settings: AB027, 18 h
Outline: (§2)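 Minimum inhibitory concentration came from a CLSI broth dilution assay: 18 h at 37 °C, inoculum 5 × 10^5 CFU/mL final.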

A. baumannii AB92247 = test: microbe, parasite or virus in culture; assay type: cell-based, Acinetobacter baumannii; settings: AB92247, 18 h
Outline: as §2

E. coli 94393 [4] = test: microbe, parasite or virus in culture; assay type: cell-based, Escherichia coli; settings: 94393, 18 h
Outline: as §2

E. coli 94474 [5] = test: microbe, parasite or virus in culture; assay type: cell-based, Escherichia coli; settings: 94474, 18 h
Outline: as §2

K. pneumoniae 113250 [6] = test: microbe, parasite or virus in culture; assay type: cell-based, Klebsiella pneumoniae; settings: 113250, 18 h
Outline: as §2

MRSE 61589 [7] = assay type: cell-based, Staphylococcus epidermidis; settings: 61589, 18 h
Description: as §1

MSSE 81388 [8] = assay type: cell-based, Staphylococcus epidermidis; settings: 18 h
Description: as §1

E. coli 94393 [9] = assay type: cell-based, Escherichia coli; settings: for MICUTBLP: UTBLP alone
Description: (§3) The synergy of the UTBLPs with various antibiotics was assessed using checkerboard assay as previously described. Briefly, the combination of antibiotic and OMP at varying concentrations were incubated with bacterial inoculum (5 × 10^5 CFU/mL final concentration) at 37 °C for 18 h. Growth in the form of turbidity was confirmed using an EMax Plus microplate reader (Molecular Devices, Union City, CA, USA) at 590 nm. Fractional inhibitory concentration index (FICI) was used to evaluate the interaction between the antibiotic and the OMP. FICI is the sum of the FIC of the antibiotic and the FIC of the OMP. The FIC value is calculated by dividing the MIC of the agents in combination by the MIC of the agent alone. FICI ≤ 0.5 is synergistic, 0.5 < x ≤ 4 is additive, and >4 is antagonistic.

E. coli 94474 [10] = assay type: cell-based, Escherichia coli; settings: for MICUTBLP: UTBLP alone
Description: as §3

E. coli ATCC 25922 [11] = assay type: cell-based, Escherichia coli; settings: for MICUTBLP: UTBLP alone
Description: as §3

K. pneumoniae 113250 [12] = assay type: cell-based, Klebsiella pneumoniae; settings: for MICUTBLP: UTBLP alone
Description: as §3

MRSA ATCC 33592 = assay type: cell-based, Staphylococcus aureus
Description: as §3

S. aureus ATCC 29213 = assay type: cell-based, Staphylococcus aureus
Description: as §3

MRSE 61589 [13] = assay type: cell-based, Staphylococcus epidermidis
Description: as §3

MSSE 81388 [14] = assay type: cell-based, Staphylococcus epidermidis
Description: as §3

E. faecalis ATCC 29212 [15] = assay type: cell-based, Enterococcus faecalis
Description: as §3

E. faecium ATCC 27270 [16] = assay type: cell-based, Enterococcus faecium
Description: as §3

[17] = UTBLP in combination with novobiocin
[18] = UTBLP in combination with rifampicin
[19] = novobiocin in combination with the UTBLP
[20] = rifampicin in combination with the UTBLP
[21] = UTBLP in combination with chloramphenicol
[22] = chloramphenicol in combination with the UTBLP
[23] = UTBLP alone, plate with chloramphenicol

CCCCCCCC(=O)N[C@@H](CCCCNC)C(=O)NCCCN(CCCNC(=O)[C@H](CCCCNC)NC(=O)CCCCCCC)CC(=O)N[C@@H](CCCCNC)C(N)=O [UTBLP 2]
4 µg/mL: MICantibiotic [MICcombo] (E. coli 94474 [10]; [19]) | MICUTBLP [MICcombo] (E. coli ATCC 25922 [11]; UTBLP in combination with niclosamide) | MICantibiotic [MICcombo] (K. pneumoniae 113250 [12]; [19]) | MICantibiotic [MICcombo] (K. pneumoniae 113250 [12]; [20])
8 µg/mL: MICUTBLP [MICcombo] (E. coli ATCC 25922 [11]; [17]) | MICchloramphenicol [MICcombo] (MSSE 81388 [14]; [22]) | MICchloramphenicol [MICcombo] (E. faecalis ATCC 29212 [15]; [22]) | MICchloramphenicol [MICcombo] (E. faecium ATCC 27270 [16]; [22])
> 128 µg/mL: MIC (A. baumannii AB027) | MIC (A. baumannii AB92247) | MIC (E. coli 94393 [4]) | MIC (E. coli 94474 [5]) | MIC (K. pneumoniae 113250 [6]) | MICUTBLP (E. coli 94393 [9]; plate with novobiocin) | MICUTBLP (E. coli 94393 [9]; plate with rifampicin) | MICUTBLP (E. coli 94474 [10]; plate with novobiocin) | MICUTBLP (E. coli 94474 [10]; plate with rifampicin) | MICUTBLP (E. coli ATCC 25922 [11]; plate with chloramphenicol) | MICUTBLP (E. coli ATCC 25922 [11]; plate with niclosamide) | MICUTBLP (E. coli ATCC 25922 [11]; plate with novobiocin) | MICUTBLP (E. coli ATCC 25922 [11]; plate with rifampicin) | MICUTBLP (K. pneumoniae 113250 [12]; plate with novobiocin) | MICUTBLP (K. pneumoniae 113250 [12]; plate with rifampicin) | MICUTBLP (MRSA ATCC 33592; [23]) | MICUTBLP (E. faecalis ATCC 29212 [15]; [23]) | MICUTBLP (E. faecium ATCC 27270 [16]; [23])
0.125 µg/mL: MICantibiotic [MICcombo] (E. coli 94393 [9]; [20]) | MICantibiotic [MICcombo] (E. coli ATCC 25922 [11]; [20])
128 µg/mL: MICUTBLP (S. aureus ATCC 29213; [23])
1 µg/mL: MICantibiotic [MICcombo] (E. coli 94393 [9]; [19]) | MICantibiotic [MICcombo] (E. coli ATCC 25922 [11]; [19])
16 µg/mL: MICUTBLP [MICcombo] (E. coli 94393 [9]; [17]) | MICUTBLP [MICcombo] (E. coli 94393 [9]; [18]) | MICUTBLP [MICcombo] (E. coli 94474 [10]; [17]) | MICUTBLP [MICcombo] (E. coli 94474 [10]; [18]) | MICUTBLP [MICcombo] (E. coli ATCC 25922 [11]; [18]) | MICUTBLP [MICcombo] (K. pneumoniae 113250 [12]; [17]) | MICUTBLP [MICcombo] (K. pneumoniae 113250 [12]; [18]) | MICchloramphenicol [MICcombo] (S. aureus ATCC 29213; [22]) | MICchloramphenicol [MICcombo] (MRSE 61589 [13]; [22])
Additive (0.5 < x ≤ 4 is additive): Interpretation (E. coli ATCC 25922 [11]; UTBLP + chloramphenicol) | Interpretation (MRSA ATCC 33592; UTBLP + chloramphenicol) | Interpretation (MRSE 61589 [13]; UTBLP + chloramphenicol) | Interpretation (MSSE 81388 [14]; UTBLP + chloramphenicol) | Interpretation (E. faecalis ATCC 29212 [15]; UTBLP + chloramphenicol) | Interpretation (E. faecium ATCC 27270 [16]; UTBLP + chloramphenicol)
Synergy (FICI ≤ 0.5 is synergistic): Interpretation (E. coli 94393 [9]; UTBLP + novobiocin) | Interpretation (E. coli 94393 [9]; UTBLP + rifampicin) | Interpretation (E. coli 94474 [10]; UTBLP + novobiocin) | Interpretation (E. coli 94474 [10]; UTBLP + rifampicin) | Interpretation (E. coli ATCC 25922 [11]; UTBLP + niclosamide) | Interpretation (E. coli ATCC 25922 [11]; UTBLP + novobiocin) | Interpretation (E. coli ATCC 25922 [11]; UTBLP + rifampicin) | Interpretation (K. pneumoniae 113250 [12]; UTBLP + novobiocin) | Interpretation (K. pneumoniae 113250 [12]; UTBLP + rifampicin)
>128 µg/mL: MIC (A. baumannii ATCC 17978) | MIC (E. coli ATCC 25922 [1]) | MIC (E. faecalis ATCC 29212 [2]) | MIC (E. faecium ATCC 27270 [3])
0.5 µg/mL: MICantibiotic [MICcombo] (E. coli 94474 [10]; [20])
64 µg/mL: MIC (MRSE 61589 [7]) | MIC (MSSE 81388 [8]) | MICchloramphenicol [MICcombo] (MRSA ATCC 33592; [22]) | MICUTBLP (MRSE 61589 [13]; [23]) | MICUTBLP (MSSE 81388 [14]; [23])
2 µg/mL: MICantibiotic [MICcombo] (E. coli ATCC 25922 [11]; [22]) | MICantibiotic [MICcombo] (E. coli ATCC 25922 [11]; niclosamide in combination with the UTBLP)
0.25 µg/mL: MICUTBLP [MICcombo] (E. coli ATCC 25922 [11]; [21]) | MICUTBLP [MICcombo] (MRSA ATCC 33592; [21]) | MICUTBLP [MICcombo] (S. aureus ATCC 29213; [21]) | MICUTBLP [MICcombo] (MRSE 61589 [13]; [21]) | MICUTBLP [MICcombo] (MSSE 81388 [14]; [21]) | MICUTBLP [MICcombo] (E. faecalis ATCC 29212 [15]; [21]) | MICUTBLP [MICcombo] (E. faecium ATCC 27270 [16]; [21])
